# Tests used:
# [1] = target: T1, Bromodomain-containing protein 4 [58-164] (Homo sapiens, UniProt O60885); test: Determination of the value of binding affinity constant (KO between the compound and BRD4 BD1 protein
# T1 construct: 58-164
# Procedure: The multifunctional microplate reader was a product of TECAN, model: SPARK 10M. Buffer: 100 mM potassium phosphate (pH 6.5), 2% ethylene glycol (Sigma) and 0.01% Trition X-100 (Sigma). The experimental water was Millipore-Q pure water.The specific experimental steps were as follows.First, the compound to be tested was dissolved in ethylene glycol to prepare into a 10 mM standard stock solution. Subsequently, the standard stock solution of the compound to be tested was diluted into a working sample solution with the buffer in an EP tube and ready for use. The concentration of the prepared working sample solution was 5 times of the highest sample concentration required on the test plate (5×test compound solution).[…] of a 5× test compound solution of a sample A was added to wells B1-B3 of a 96-well plate, and 40 μL of a 5× test compound solution of a sample B was added to wells B7-B9 of the 96-well plate, respectively. 20 uL of the buffer was added to the remaining wells, except for wells B1-B3 and B7-B9. Then, 20 uL of a solution was taken from wells B1-B3 to C1-C3, and this 2-fold dilution was repeated from C1-C3 until H4-H6; in the same way, 20 uL of a solution was taken from B7-B9 to C7-C9, this 2-fold dilution was repeated from C7-C9 until H10-H12.
# [2] = target: T2, Bromodomain-containing protein 4 [348-457] (Human, UniProt O60885); test: Determination of the value of binding affinity constant (KO between the compound and BRD4 BD2 protein
# T2 construct: 348-457
# Procedure: The multifunctional microplate reader was a product of TECAN, model: SPARK 10M. Buffer: 100 mM potassium phosphate (pH 6.5), 2% ethylene glycol (Sigma) and 0.01% Trition X-100 (Sigma). The experimental water was Millipore-Q pure water.The Ki value of the compound and BRD4 BD2 protein was measured according to the FP test procedures for detecting the Ki value of the compound and BRD4 BD1 protein except that the BRD4 BD1 protein was replaced with the BRD4 BD2 protein.
Compound,Ki [1] [nM],Ki [2] [nM]
"CCCCN1CC=C(c2ccc3c(c2)C(Nc2cccc(Cl)c2)CCn2nnc(C)c2-3)CC1 (configuration not stated) [US12286435, Code BH108]",451,24.3
"COC(=O)Cc1ccc(NC2CCn3nnc(C)c3-c3ccc(-c4cnn(C)c4)cc32)cc1 (configuration not stated) [US12286435, Code LB38]",44.8,9.29
"Cc1nnn2c1-c1ccc(-c3cnn(C)c3)cc1C(Nc1cccc(CCO)c1)CC2 (configuration not stated) [US12286435, Code LB71]",92.2,30.5
"COC(=O)Cc1ccccc1NC1CCn2nncc2-c2ccc(-c3cnn(C)c3)cc21 (configuration not stated) [US12286435, Code LB175]",43.5,18.6
"Cc1nnn2c1-c1ccc(C3=CCNCC3)cc1C(Nc1c(F)cccc1Cl)CC2 (configuration not stated) [US12286435, Code LC198]",2980,153
"Cc1nnn2c1-c1ccc(C3=CCOCC3)cc1C(Nc1cccc(Cl)c1)CC2 (configuration not stated) [US12286435, Code LD31]",39.1,17.1
